The source of these data is article PMC9594487 (Cancer chemotherapy and pharmacology, 2017).

Data set [1] relates to patients with advanced solid tumors. In words: Phase I 3+3 dose escalation: DLT, MTD and recommended dose. The conditions noted are these: in vivo, iv.
The conditions of data set [2]: background statement, no reference given, cited from earlier work.
For data set [3] the following is noted: single agent in a phase I trial; cited from earlier work.

Turning to Cilengitide, the “recommended dose of cilengitide for subsequent study (recommended phase II dose)” value in data set [1] is 2000 mg. Moreover, in data set [2], the route of clearance result was “predominantly renally cleared” and the terminal half-life is 3 to 5 h. The minimum washout in data set [2] (estimated) was 24 h. The “maximum tolerated dose (MTD), single agent” value in data set [3] is reported as “not reached”.
